Usually IC50 stands for the concentration that inhibits the measured activity by half.

Structures are written as SMILES.

The subject of one assay is L23/R. Put plainly: in vitro inhibition of growth of human lung cancer cell line L23/R (Table 1). The assay is classed as cell-based. An excerpt: (§1) Tables 1 to 4 at the end of the present description show in vitro test results obtained in various sets of experiments for the cytotoxic activity of several of the benzazole compounds concerned, including also for reference results for the compound CJM 126 and comparative results for compound DF129, when tested against a range of tumor cell lines which includes ovarian, lung and certain colon and renal cancer cells from the National Cancer Institute (USA) collection. As usual the results are expressed in terms of IS50 values (concentration or dosage required to reduce cell growth or proliferation by 50%) calculated from dose-effect curves plotted for cultures of the cells in question.
(§2) In carrying out the in vitro studies, the cytotoxicity assays may be carried out by a method corresponding substantially to the following example:
(§3) Cells were maintained in a continuous logarithmic culture in Dublecco's medium supplemented with 10% fetal calf serum and penicillin (100 IU/ml) and streptomycin ([…]). The cells were mildly trypsinized for passage and for use in assays. On day zero, 100 μl of trypsinized tumor cells (1×10^4 /ml) were plated in the wells of 96-well flat-bottom microtiter plates. The plates were incubated for 2 days at 37° C. and 5% CO2 in air to allow the cells to adhere and resume exponential growth prior to the addition of drugs.
(§4) On day two 50 μl of the highest drug concentration was added to the wells of column 12 and from there serially diluted 3-fold to column 1 by serial transfer of 50 μl using an 8-channel micropipette. The final volume of column 1 was adjusted to 100 μl. No additions were made to the wells of rows A and B, which served as controls. The plates were further incubated for 5 days at 37° C. and 5% CO2 in air. Each compound was tested in duplicate.
(§5) On day 7 the test was terminated by the addition of 100 μl saline containing 0.002% w/v propidium iodide (Sigma), 0.3% drawing ink (Staedtler "Marsmatic 745"--Trade Mark) and 0.5% Triton X-100. The plates were kept at 4° C. overnight before reading on an inverted microscope equipped with an automated scanning stage. Fluorescence intensity was measured in arbitrary units by a photomultiplier. An HP-87 computer controlled the movement of the stage and also collected and processed the data from the multiplier.
(§6) For each compound tested a dose-response curve was obtained and the IC50 value (the drug concentration at 50% inhibition of cell growth) was calculated.

The next assay deals with Colon HCC-2998. Put plainly: in vitro inhibitory activity against human colon cell line HCC-2998 (Table 3). It is filed as cell-based.
From the text: as §1
(§7) In carrying out the in vitro studies, the cytotoxicity assays may be carried out by a method corresponding substantially to the following example: […]
(§8) On day 7 the test was terminated by the addition of 100 μl saline containing 0.002% w/v propidium iodide (Sigma), 0.3% drawing ink (Staedtler "Marsmatic 745"--Trade Mark) and 0.5% Triton X-100. The plates were kept at 4° C. overnight before reading on an inverted microscope equipped with an automated scanning stage. Fluorescence intensity was measured in arbitrary units by a photomultiplier. […]

Another assay has as its system Renal TK-10. Put plainly: in vitro inhibitory activity against human renal cell line TK-10 (Table 3). It is filed as cell-based.
From the text: as §1, §7, §8

The next assay has as its system breast carcinoma BO. Put plainly: in vivo antitumor test, human breast carcinoma BO xenotransplanted in nude mice. The conditions noted are these: BO. As for the experimental part: (§9) In one typical set of experiments, four human breast carcinomas xenotransplanted into female Ncr: nu/nu (Taconic, Germantown, U.S.A.) or male Bom: NMRI-nu/nu mice (Bomholtgaard, Ry, Denmark) were used for the evaluation of antitumor activity. Mice weighing 20-25 g at the start of experiments were held under sterile conditions at 24-26° C., 50% relative humidity and 12 hours light-dark rhythm in laminar flow shelves. The animals received autoclaved food and bedding; the drinking water was filtered and acidified (pH4.0).
The following breast carcinoma cell lines were used: BO; MCF-7 (NCI, U.S.A.); MT-1 and MT-3. The tumors BO and MCF-7 are ER^+ models: the carcinomas MT-1 and MT-3 are ER^- ones. Tumors were transplanted subcutaneously (s.c.) as pieces (2×2 mm) into the left flank of 5-8 nude mice/experimental group. Drug treatment was initiated when the tumors reached a diameter of 4-5 mm. Compounds were solubized with Tween 80 (maximum 10% of final volume) and suspended in saline. Suspensions were preparted freshly for each drug administration and injected in a volume of 0.2 mL/20 g body weight employing a once-weekly schedule (x3). Tumor size was measured twice weekly with a caliper. Median tumor volume/group was related to the first treatment day and expressed as Relative Tumor Volume (RTV). For the estimation of toxicity, body weight was determined twice weekly and the mean percentage body weight change (BCC) was calculated. In one experiment blood was obtained from the retroorbital venous plexus of mice and blood cells were determined with a Coulter counter (Model T41). […]

The next assay deals with A2780. Put plainly: in vitro activity against human ovarian cell line A2780 (Table 2). The assay is classed as cell-based. The conditions noted are these: Homo sapiens; A2780 (parental line).
From the text: (§10) As usual the results are expressed in terms of IS50 values (concentration or dosage required to reduce cell growth or proliferation by 50%) calculated from dose-effect curves plotted for cultures of the cells in question.
as §2, §3, §4
(§11) The plates were kept at 4° C. overnight before reading on an inverted microscope equipped with an automated scanning stage. Fluorescence intensity was measured in arbitrary units by a photomultiplier. An HP-87 computer controlled the movement of the stage and also collected and processed the data from the multiplier.

In a further assay the test system is CH1-cisR. Put plainly: in vitro activity against human ovarian cell line CH1-cisR (Table 2). The assay is classed as cell-based. The conditions noted are these: Homo sapiens, CH1cisR.
From the text: as §10, §2, §3, §4, §11

The test system of the next assay is L88. Put plainly: in vitro inhibition of growth of human lung cancer cell line L88 (Table 1). It is filed as cell-based.
From the text: as §1, §2, §3
On day two 50 μl of the highest drug concentration was added to the wells of column 12 and from there serially diluted 3-fold to column 1 by serial transfer of 50 μl using an 8-channel micropipette. The final volume of column 1 was adjusted to 100 μl. No additions were made to the wells of rows A and B, which served as controls. […]
as §8

For another assay, the system named is MOR/R. Put plainly: in vitro inhibition of growth of human lung cancer cell line MOR/R (Table 1). It is filed as cell-based. The conditions noted are these: MOR/R (multidrug resistant line).
From the text: as §1, §2, §3, §4, §5, §6

A further assay concerns Renal ACHN. Put plainly: in vitro inhibitory activity against human renal cell line ACHN (Table 3). It is filed as cell-based.
From the text: as §1, §7, §8

In another assay the test system is OVCAR-4. Put plainly: in vitro activity against human ovarian cell line OVCAR-4 (Table 2). It is filed as cell-based.
From the text: as §1, §7, §8

For the next assay, the system named is MCF-7. Put plainly: in vivo antitumor test, human breast carcinoma MCF-7 xenotransplanted in nude mice. The conditions noted are these: for evaluation / RTV, relative tumor volume (T/C %): qd 12, 19, 26; for RTV, relative tumor volume (T/C %): marked * significant versus control. As for the experimental part: as §9
The following breast carcinoma cell lines were used: BO; MCF-7 (NCI, U.S.A.); MT-1 and MT-3. The tumors BO and MCF-7 are ER^+ models: the carcinomas MT-1 and MT-3 are ER^- ones. Tumors were transplanted subcutaneously (s.c.) as pieces (2×2 mm) into the left flank of 5-8 nude mice/experimental group. Drug treatment was initiated when the tumors reached a diameter of 4-5 mm. Compounds were solubized with Tween 80 (maximum 10% of final volume) and suspended in saline. Suspensions were preparted freshly for each drug administration and injected in a volume of 0.2 mL/20 g body weight employing a once-weekly schedule (x3). Tumor size was measured twice weekly with a caliper. Median tumor volume/group was related to the first treatment day and expressed as Relative Tumor Volume (RTV). For the estimation of toxicity, body weight was determined twice weekly and the mean percentage body weight change (BCC) was calculated. In one experiment blood was obtained from the retroorbital venous plexus of mice and blood cells were determined with a Coulter counter (Model T41).
Some of the in vivo test results are shown in Tables 5 and 6 at the end of the present description, and in FIG. 1 of the accompanying drawing which illustrates the results for measurements of in vivo activity of 2-(4'-amino-3'-methylphenyl) benzothiazole (DF203) against MCF7 in nude mice administered on days 12, 19 and 26.

In another assay the test system is MDA 468. Put plainly: in vitro inhibitory activity against human breast tumour cell line MDA 468 (Table 4). It is filed as cell-based. The conditions noted are these: initial seeding density 2.5 × 10^2 cells/well.
From the text: as §1, §2, §3, §4, §5, §6
*Initial seeding density 2.5 × 10^2 cells/well

In the next assay the test system is Colon SW-620. Put plainly: in vitro inhibitory activity against human colon cell line SW-620 (Table 3). It is filed as cell-based.
From the text: as §1, §7, §8

Setting [1] is: MCF-7, optimum dose 200 mg/Kg/inj i.p.
Where [2] appears, read: MCF-7, optimum dose 12.5 mg/Kg/inj i.p.

`Nc1ccc(-c2nc3ccccc3s2)cc1I` [DF129, 2-(4'-amino-3'-iodophenyl)benzothiazole]: the IC50 in the assay on L23/R was above 10 µM; in the assay on Colon HCC-2998, below 1000 nM; in the assay with Renal TK-10, below 1000 nM; in the assay on A2780, above 100 µM; in the assay on CH1-cisR, 83 µM; in the assay with L88 it was 0.05 µM. Also, the IC50 is 100 nM with MOR/R; above 100 µM in the assay on Renal ACHN; 200 nM in the assay with OVCAR-4; below 1 nM in the assay on MDA 468; around 100 µM in the assay with Colon SW-620. For the same compound, the “RTV, relative tumor volume (T/C %)” value with breast carcinoma BO (optimum dose 200 mg/Kg/inj i.p., qd 27, 34, 41 (Table 6), not marked significant) stood at 97%; with MCF-7 (setting [1]), 68%. In addition, in the assay with MCF-7 (setting [1]), the evaluation entry is reported as “(+) (T/C % ≥ 51%)”.
Take `Cc1cc(-c2nc3ccccc3s2)ccc1N` [DF203, 2-(4'-amino-3'-methylphenyl)benzothiazole]: the IC50 is above 10 µM in the assay with L23/R; below 1000 nM in the assay on Colon HCC-2998; below 1000 nM in the assay on Renal TK-10; above 100 µM in the assay on A2780; 42 µM with CH1-cisR; 6 µM in the assay with L88. Also, the IC50 was 70 nM in the assay on MOR/R; around 100 µM in the assay with Renal ACHN; below 1000 nM in the assay on OVCAR-4; below 1 nM with MDA 468; above 100 µM in the assay with Colon SW-620. Also, the evaluation entry in the assay on breast carcinoma BO (optimum dose 25 mg/Kg/inj i.p., qd 27, 34, 41) is listed as “++ (T/C = 21-35%)”; with MCF-7 (setting [2]), “++ (T/C = 21-35%)”. The “RTV, relative tumor volume (T/C %)” value with breast carcinoma BO (optimum dose 25 mg/Kg/inj i.p., qd 27, 34, 41, marked * significant versus control) is 35%; with MCF-7 (setting [2]), 31%. Further, in the assay with MCF-7 (top dose 25 mg/Kg), the “tumor status of surviving animal” value is given as “tumor free”.

The record behind these values is patent US6034246A, “2-arylbenzazole compounds” (Cancer Research Campaign Technology Limited, priority 1995, dated 2000).
